The text below walks through data of patent publication US11400062B2, “Compositions comprising enzyme-cleavable amphetamine prodrugs and inhibitors thereof” (Signature Therapeutics, Inc., priority 2010, dated 2022).

What is called Cmax is the peak of the concentration-time curve. Broadly, the Tmax is the time from dosing to the highest level. One may read the half-life as the time needed for the level to fall by half in the phase considered.

Series [1] in a line: In vivo tolerability in rats (intravenous). The following applies: for dose tolerated by rats: IV. Further details: species or system rat. Here is the method: (§1) Male naïve Sprague-Dawley rats, 4 per dose, were used in the study. Rats were weighed, and then placed under a heat lamp for 15-20 minutes to dilate the lateral tail veins. […] Before dosing, rats were placed in Broome restrainers and the drug was introduced into one of the tail veins using a syringe and needle. […] Blood samples were collected 5 minutes post-dose via the saphenous vein. The rats were observed up to 24 hours.
as §1
The protocol to assess the IV tolerability of Compound AM-3 (lisdexamphetamine) was as described in Examples 9 and 13 above.

A short description of series [2]: Pharmacokinetics of prodrug following PO administration to rats. The following applies: for Cmax / Tmax: male, Sprague Dawley, rat, plasma, po.
A short description of series [3]: Pharmacokinetics of prodrug following IV administration to rats. The following applies: for Cmax: male, Sprague Dawley, rat, plasma, iv.
The target of a further series is T1, trypsin (Bos taurus, UniProt P00760).
T1 sequence (P00760 24-246): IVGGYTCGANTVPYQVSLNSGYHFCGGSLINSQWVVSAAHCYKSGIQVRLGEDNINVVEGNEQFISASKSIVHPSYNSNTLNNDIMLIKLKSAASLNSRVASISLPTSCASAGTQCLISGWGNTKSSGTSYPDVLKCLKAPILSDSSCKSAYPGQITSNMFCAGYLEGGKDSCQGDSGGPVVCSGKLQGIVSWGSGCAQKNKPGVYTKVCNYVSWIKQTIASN
In words: In vitro trypsin conversion of prodrugs to amphetamine and inhibition by trypsin inhibitor. The following applies: bovine, trypsin from bovine pancreas; for half-life at 0.761 mM: pH 8; for half-life: pH 8, with Compound 109 (trypsin inhibitor), 2 uM.

In series [4] the target is T2, trypsin from bovine pancreas (Bos taurus, UniProt P00760).
T2 sequence (P00760 24-246): T1 sequence (P00760 24-246)
The series is described as above. The following applies: no trypsin inhibitor; 0.761 mM prodrug HCl, 0.0228 mg/ml trypsin, pH 8, 37° C.

Where [5] appears, read: rat plasma, AM-4 PO 24 mg/kg (63 μmol/kg).

Turning to `CC(=O)N[C@@H](CCCNC(=N)N)C(=O)N[C@@H](C)Cc1ccccc1` (stereo in doubt) [Compound AM-1, 2-acetylamino-5-guanidino-pentanoic acid ((R)-1-methyl-2-phenyl-ethyl)-amide], in series [1] (AM-1 IV 87 μmol/kg), the “time to recover to normal activity” value was at most 2 min. The “dose tolerated by rats” value in series [1] was found to be 87 µmol/kg. In series [2] (24 mg/kg), the Cmax was 1.28 ± 0.81 ng/mL and the Tmax came to 0.625 ± 0.43 h. Also, in series [3] (5 mg/kg), the Cmax stood at 3250 ± 310 ng/mL. On trypsin, the half-life at 0.761 mM was 39.9 ± 0.5 h and the half-life was 54 ± 4.6 h. Moreover, the “Rate of AMP formation, Ave ± sd” value in series [4] is 0.0455 ± 0.0102 umols/h/UBAEE.

Consider `CC(=O)N[C@@H](CCCCN)C(=O)N[C@@H](C)Cc1ccccc1` [Compound AM-5, Amphetamine-lysine-acetate], for which the Cmax in series [3] (4.5 mg/kg) was 2150 ± 1700 ng/mL.

Turning to “Amphetamine-arginine-N-methyl [Compound AM-4]”, the “AMP Cmax ± sd” value in series [2] (setting [5]) turned out to be 1.92 ± 0.20 ng/mL; in series [3] (rat plasma, AM-4 IV 4.5 mg/kg (12 μmol/kg)), 17.9 ± 3.5 ng/mL. Besides, the “AMP Tmax ± sd” value in series [2] (setting [5]) came to 1.00 ± 0.0 h.

`C[C@@H](Cc1ccccc1)NC(=O)[C@@H](N)CCCCN` [Compound AM-3, lisdexamphetamine, reference compound]: the “time to recover to normal activity” value in series [1] (AM-3 IV 48 μmol/kg) is at most 120 min. The figures for the “death of the rats” value in series [1] (AM-3 IV 95 μmol/kg) and in series [1] (AM-3 IV 190 μmol/kg) were 50% and 100%, respectively. Further, in series [1] (AM-3 IV 95 μmol/kg and 190 μmol/kg), the time to death entry is recorded as “less than 1 min”. For the same compound, the Clinical observations entry in series [1] (AM-3 IV 64 mg/kg (190 μmol/kg), 1 rat) is “Died 10 sec post dose”. The “dose tolerated by rats” value in series [1] turned out to be 48 µmol/kg. Further, the Cmax in series [2] (22 mg/kg) turned out to be 357 ng/mL; in series [3] (4.5 mg/kg), 1670 ± 580 ng/mL. In series [2] (22 mg/kg), the Tmax amounted to 0.625 ± 0.25 h. For the same compound, the half-life at 0.761 mM on trypsin was 112 ± 14 h. Further, the half-life on trypsin is 393 ± 431 h. For the same compound, in series [4], the “Rate of AMP formation, Ave ± sd” value is given as “not detectable”.

As to `C[C@@H](Cc1ccccc1)NC(=O)[C@H](CCCNC(=N)N)NC(=O)CC(=O)O` [Compound AM-2, N-[4-guanidino-1-((R)-1-methyl-2-phenyl-ethylcarbamoyl)-butyl]-malonic acid], in series [1] (AM-2 IV 155 μmol/kg), the “time to recover to normal activity” value is at most 30 min. In addition, the “dose tolerated by rats” value in series [1] stood at 155 µmol/kg. Also, in series [2] (27 mg/kg), the Cmax amounted to 811 ± 850 ng/mL and the Tmax turned out to be 0.625 ± 0.25 h. Besides, in series [3] (6 mg/kg), the Cmax was 2600 ± 260 ng/mL. On trypsin, the half-life at 0.761 mM is 59.9 ± 17.1 h and the half-life was 68.5 ± 16.4 h. Moreover, in series [4], the “Rate of AMP formation, Ave ± sd” value came to 0.0310 ± 0.0004 umols/h/UBAEE.
